Measured values published in PubChem BioAssay AID330 (DTP/NCI, 2004).
Several values for one entry are separate records, joined by “and”; a condition that tells them apart may be missing. Identical values can stand only once. Toxic doses and inconclusive results are not listed.

Tested on: P388 leukemia ip, CD2F1 mice, survival T/C
Test: NCI In Vivo Anticancer Drug Screen. Data for tumor model P388 Leukemia (intraperitoneal) in CD2F1 (CDF1) mice
Settings: endpoint: median survival time, higher = longer survival
How it was run: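 Mice carrying the transplanted tumor received test compound or vehicle. Survival was recorded in each group, and the value is the treated-group measurement divided by that of the vehicle-treated control group.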

[1] = dose: 60.0 mg/kg/injection, schedule: Q01DX005 (ip), vehicle: saline with Tween-80
[2] = dose: 120.0 mg/kg/injection, schedule: Q01DX005 (ip), vehicle: saline with Tween-80
[3] = dose: 240.0 mg/kg/injection, schedule: Q01DX005 (ip), vehicle: saline with Tween-80
[4] = dose: 50.0 mg/kg/injection, schedule: Q01DX009 (ip), vehicle: saline
[5] = dose: 100.0 mg/kg/injection, schedule: Q01DX009 (ip), vehicle: saline
[6] = dose: 200.0 mg/kg/injection, schedule: Q01DX009 (ip), vehicle: saline

SMILES: CC(CCl)N(CCCl)Cc1cccc(Nc2ncnc3nc[nH]c23)c1 (configuration not stated)
- T/C (dose: 0.13 mg/kg/injection, schedule: Q01DX009 (ip), vehicle: saline): 118 % of control
- T/C (dose: 0.15 mg/kg/injection, schedule: Q04DX003 (ip), vehicle: saline): 104 % of control
- T/C (dose: 0.22 mg/kg/injection, schedule: Q04DX003 (ip), vehicle: saline): 109 % of control
- T/C (dose: 0.33 mg/kg/injection, schedule: Q04DX003 (ip), vehicle: saline): 118 % of control
- T/C (dose: 1.3 mg/kg/injection, schedule: Q01DX009 (ip), vehicle: saline sonified): 154 % of control
- T/C (dose: 2.0 mg/kg/injection, schedule: Q01DX009 (ip), vehicle: saline sonified): 181 % of control
- T/C (dose: 3.0 mg/kg/injection, schedule: Q01DX009 (ip), vehicle: saline sonified): 172 % of control

SMILES: CN(C)c1ncnc2c1ccn2C1OC(CO)C(O)C1O (configuration not stated)
- T/C (dose: 6.25 mg/kg/injection, schedule: Q01DX005 (ip), vehicle: Klucel (hydroxypropylcellulose) (HPC)): 106 % of control
- T/C (dose: 12.5 mg/kg/injection, schedule: Q01DX005 (ip), vehicle: Klucel (hydroxypropylcellulose) (HPC)): 109 % of control
- T/C (dose: 25.0 mg/kg/injection, schedule: Q01DX005 (ip), vehicle: Klucel (hydroxypropylcellulose) (HPC)): 117 % of control

SMILES: CC(=O)/C(=C\c1cccc(Cl)c1)C(=O)CCN(C)C
- T/C [1]: 108 % of control and 111 % of control
- T/C [2]: 115 % of control

SMILES: COCC1(O)C=CC(=O)O1 (configuration not stated)
- T/C (dose: 50.0 mg/kg/injection, schedule: Q01DX005 (ip), vehicle: saline): 105 % of control

SMILES: CCOP(=O)(Nc1ccc2c(c1)C(=O)c1ccccc1-2)OCC
- T/C (dose: 50.0 mg/kg/injection, schedule: Q01DX005 (ip), vehicle: Klucel (hydroxypropylcellulose) (HPC)): 102 % of control
- T/C (dose: 100.0 mg/kg/injection, schedule: Q01DX005 (ip), vehicle: Klucel (hydroxypropylcellulose) (HPC)): 96 % of control
- T/C (dose: 200.0 mg/kg/injection, schedule: Q01DX005 (ip), vehicle: Klucel (hydroxypropylcellulose) (HPC)): 96 % of control

SMILES: Cc1ccc(S(=O)(=O)C(=S)Sc2ccccc2)cc1
- T/C (dose: 3.12 mg/kg/injection, schedule: Q01DX009 (ip), vehicle: saline with Tween-80): 104 % of control
- T/C (dose: 6.25 mg/kg/injection, schedule: Q01DX009 (ip), vehicle: saline with Tween-80): 105 % of control
- T/C (dose: 12.5 mg/kg/injection, schedule: Q01DX009 (ip), vehicle: alcohol): 104 % of control
- T/C (dose: 12.5 mg/kg/injection, schedule: Q01DX009 (ip), vehicle: saline with Tween-80): 109 % of control
- T/C (dose: 25.0 mg/kg/injection, schedule: Q01DX009 (ip), vehicle: alcohol): 107 % of control
- T/C (dose: 50.0 mg/kg/injection, schedule: Q01DX009 (ip), vehicle: alcohol): 107 % of control
- T/C (dose: 50.0 mg/kg/injection, schedule: Q01DX009 (ip), vehicle: saline with Tween-80): 123 % of control

SMILES: C1=C(c2ccccc2)C(=Nc2ccccc2)SC1=Nc1ccccc1
- T/C (dose: 1.87 mg/kg/injection, schedule: Q01DX005 (ip), vehicle: saline with Tween-80): 113 % of control
- T/C (dose: 7.5 mg/kg/injection, schedule: Q01DX005 (ip), vehicle: saline with Tween-80): 107 % of control
- T/C (dose: 30.0 mg/kg/injection, schedule: Q01DX005 (ip), vehicle: saline with Tween-80): 100 % of control
- T/C [1]: 120 % of control
- T/C [2]: 122 % of control
- T/C [3]: 120 % of control

SMILES: c1ccc(N2N=NC3CCOC32)cc1 (configuration not stated)
- T/C (dose: 50.0 mg/kg/injection, schedule: Q01DX005 (ip), vehicle: saline with Tween-80): 94 % of control
- T/C (dose: 100.0 mg/kg/injection, schedule: Q01DX005 (ip), vehicle: saline with Tween-80): 102 % of control
- T/C (dose: 200.0 mg/kg/injection, schedule: Q01DX005 (ip), vehicle: saline with Tween-80): 106 % of control

SMILES: O=CC(O)C(O)C(O)C(O)CO (configuration not stated)
- T/C (dose: 12.5 mg/kg/injection, schedule: Q04DX003 (ip), vehicle: saline): 108 % of control
- T/C (dose: 25.0 mg/kg/injection, schedule: Q04DX003 (ip), vehicle: saline): 100 % of control
- T/C (dose: 50.0 mg/kg/injection, schedule: Q04DX003 (ip), vehicle: saline): 108 % of control
- T/C (dose: 60.0 mg/kg/injection, schedule: Q01DX005 (ip), vehicle: saline): 103 % of control
- T/C (dose: 120.0 mg/kg/injection, schedule: Q01DX005 (ip), vehicle: saline): 105 % of control
- T/C (dose: 240.0 mg/kg/injection, schedule: Q01DX005 (ip), vehicle: saline): 102 % of control
- T/C (dose: 1.0 % in 0.5 ml injection vol, schedule: Q01DX009 (ip), vehicle: water): 100 % of control
- T/C (dose: 2.0 % in 0.5 ml injection vol, schedule: Q01DX009 (ip), vehicle: water): 103 % of control
- T/C (dose: 4.0 % in 0.5 ml injection vol, schedule: Q01DX009 (ip), vehicle: water): 101 % of control
- T/C (dose: 8.0 % in 0.5 ml injection vol, schedule: Q01DX009 (ip), vehicle: water): 100 % of control and 105 % of control
- T/C (dose: 16.0 % in 0.5 ml injection vol, schedule: Q01DX009 (ip), vehicle: water): 103 % of control and 112 % of control
- T/C (dose: 32.0 % in 0.5 ml injection vol, schedule: Q01DX009 (ip), vehicle: water): 98 % of control and 99 % of control

SMILES: O=C(c1ccccc1)N1CCCSC1=S
- T/C [1]: 101 % of control
- T/C [2]: 105 % of control
- T/C [3]: 104 % of control

SMILES: CC(C)COC(=O)C(CC(C)C)NC(=O)C(C)O (configuration not stated)
- T/C (dose: 50.0 mg/kg/injection, schedule: Q01DX001 (ip), vehicle: suspension in saline): 103 % of control
- T/C [1]: 97 % of control
- T/C (dose: 100.0 mg/kg/injection, schedule: Q01DX001 (ip), vehicle: suspension in saline): 92 % of control
- T/C [2]: 101 % of control
- T/C (dose: 200.0 mg/kg/injection, schedule: Q01DX001 (ip), vehicle: suspension in saline): 103 % of control
- T/C [3]: 100 % of control
- T/C (dose: 400.0 mg/kg/injection, schedule: Q01DX001 (ip), vehicle: suspension in saline): 104 % of control

SMILES: Cc1cccc(=O)[n-]1.Cc1cccc(=O)[n-]1.Cc1cccc(=O)[n-]1.Cc1cccc(=O)[n-]1.Cc1cccc(=O)[n-]1.Cc1cccc(=O)[n-]1.Cc1cccc(=[OH+])[n-]1.Cc1cccc(=[OH+])[n-]1.[Rh+2].[Rh+2].[Rh+2].[Rh+2]
- T/C (dose: 100.0 mg/kg/injection, schedule: Q04DX002 (ip), vehicle: Klucel (hydroxypropylcellulose) (HPC)): 104 % of control
- T/C (dose: 200.0 mg/kg/injection, schedule: Q04DX002 (ip), vehicle: Klucel (hydroxypropylcellulose) (HPC)): 113 % of control

SMILES: CN=C(NC)c1ccc(NC(=O)c2ccc(C(=O)Nc3ccc(C(=NC)NC)cc3)c(Cl)c2)cc1
- T/C (dose: 18.0 mg/kg/injection, schedule: Q01DX010 (ip), vehicle: saline): 218 % of control
- T/C (dose: 27.0 mg/kg/injection, schedule: Q01DX010 (ip), vehicle: saline): 254 % of control
- T/C (dose: 40.0 mg/kg/injection, schedule: Q01DX010 (ip), vehicle: saline): 209 % of control
- T/C (dose: 60.0 mg/kg/injection, schedule: Q01DX010 (ip), vehicle: saline): 154 % of control

SMILES: NC1=NN(Cc2nnc(-c3ccccc3)s2)C(=O)C1
- T/C [1]: 93 % of control
- T/C [2]: 101 % of control
- T/C [3]: 111 % of control

SMILES: CN(C/C=C/CN(C)C(=O)Nc1ccccc1)C(=O)Nc1ccccc1
- T/C [4]: 96 % of control
- T/C [5]: 100 % of control
- T/C [6]: 89 % of control

SMILES: c1cc[n+](Cc2ccc3ccccc3c2)c(C2OCCO2)c1
- T/C (dose: 5.0 mg/kg/injection, schedule: Q01DX009 (ip), vehicle: saline): 100 % of control
- T/C (dose: 10.0 mg/kg/injection, schedule: Q01DX009 (ip), vehicle: saline): 100 % of control
- T/C (dose: 20.0 mg/kg/injection, schedule: Q01DX009 (ip), vehicle: saline): 104 % of control

SMILES: NC(CSCCCCl)C(=O)O (configuration not stated)
- T/C [4]: 95 % of control
- T/C [5]: 95 % of control
- T/C [6]: 97 % of control
